Patent publication US20250171744A1, “METHODS OF REPROGRAMMING SOMATIC CELLS AND MATERIALS RELATED THERETO” (CITY OF HOPE, priority 2019, published 2025)
Entries after “also recorded” stand apart in the source; their conditions may differ.

Tests used:
[1] = tested on: human embryonic kidney cells (293T); assay: Cell proliferation under prolonged MTX/PTX application, with or without HT (FIG. 16); assay type: cell-based; conditions: for cell proliferation: prolonged, controlled application, 5% dialyzed-FBS DMEM, 500 nM MTX for 7-days
Procedure: (§1) The cells were grown in 5% dialyzed-FBS DMEM medium. 293T cells were treated with 500 nM MTX, and HF57 cells and HDF cells were treated with 1 μM MTX for 7-days. Because inhibition of DHFR and TS by folate antagonists (MTX, PTX) results in a deficiency in the cellular pools of thymidylate and purines and thus a decrease in nucleic acid synthesis, sodium hypoxanthine (10 mM) and thymidine (1.6 mM) were added to the medium to overcome the effects of MTX and PTX. […] The cells were harvested for DNA/RNA isolation and analyzed for gene expression and DNA methylation.
MTX and PTX are antifolates that inhibit enzymes (particularly thymidylate synthase and dihydrofolate reductase) involved in folate metabolism and purine and pyrimidine synthesis (100-103). Since these compounds are competitive inhibitors of […], these compounds were exogenously applied to the WT (HEK 293T and HF57) cells. As shown in FIGS. 16-17, application of MTX and PTX to the normal growing WT cells produced the phenotypes similar to the FPGS^ko. Several concentrations of MTX ranging from 75 nM to 500 nM were tested. The impact of MTX depended on the cell lines, exposure time, and the supplemental media. A concentration as low as 75 nM achieved similar results when a lower concentration of FBS was used, and the best results for 293T cells were obtained using MTX at a concentration ranging between 200 nM and 500 nM. Further, the pharmacological impacts of folate inhibitors on global DNA methylation were examined. 293T (control) cells were treated with 500 nM MTX and 1 μM PTX for at least 7 days before harvesting the cells and isolating the genomic DNA (gDNA). Equal amount of gDNA (100 ng) was analyzed with 5mC enzyme-linked immunosorbent assay (ELISA) (EpiGentek).

[2] = tested on: human dermal fibroblast (HDF) cells; assay: as above; assay type: cell-based; conditions: controlled application, 5% dialyzed-FBS DMEM, 1 μM MTX for 7-days
Procedure: as §1

[3] = tested on: human fibroblast cells (HF57); assay: as above; assay type: cell-based; conditions: controlled application, 5% dialyzed-FBS DMEM, 1 μM MTX for 7-days
Procedure: as §1

[4] = tested on: 293T cells; assay: Global DNA methylation, 5mC ELISA (FIG. 18); assay type: cell-based, human; conditions: 500 nM MTX, 1 μM PTX; 7-days; vs untreated cells
Procedure: (§2) Equal amount of DNA (100 ng) was analyzed with 5mC enzyme-linked immunosorbent assay (ELISA) (EpiGentek). […] Error bars represent the standard error for at least three independent experiments and three technical replicates.
(§3) Global DNA methylation measurement Global 5-methylcytosine (5-mC) levels were quantified using the MethylFlash Methylated DNA Quantification Kits (Epigentek, Farmingdale, NY, USA). The DNA concentration was determined using the Qubit Assay (Thermo Fisher Scientific) according to the manufacturer's protocol. Briefly, 100 ng of DNA was used for incubation with both capture and detection antibodies using MethylFlash Methylated DNA Quantification Kit (Colorimetric) from Epigentek. Subsequently, measurements of the absorbance of the sample at 450 nm in a microplate spectrophotometer (BioTek Instruments, Winooski, VT, USA) were performed with the percentage of the whole genome 5-mC calculation according to manufacturer's instructions. Genomic methylation levels in study samples were expressed as percentage of 5-mC.
MTX and PTX are antifolates that inhibit enzymes (particularly thymidylate synthase and dihydrofolate reductase) involved in folate metabolism and purine and pyrimidine synthesis (100-103). […] Equal amount of gDNA (100 ng) was analyzed with 5mC enzyme-linked immunosorbent assay (ELISA) (EpiGentek).

[5] = tested on: HF57 cells; assay: Global DNA methylation, 5mC ELISA (FIG. 18); assay type: cell-based, human; conditions: 7-days; vs untreated cells
Procedure: as §2, §3

[6] = tested on: human fibroblast (HF57) cells; assay: Immunofluorescence of pluripotency surface markers (FIG. 25, 26); assay type: cell-based; conditions: for SSEA-4 and TRA 1-60 surface markers immunofluorescence: 1 μM for 7 days, DMEM with low methionine (15 mg/L)
Procedure: Post MTX treatment, the cells were labeled using primary antibodies (ant-SSEA4-anti mouse IgG3) followed by secondary antibodies conjugated to Alexa Fluor 488 goat anti-mouse IgG3. The cells were counterstained with DAPI. […] The cells were grown in regular DMEM medium with or without MTX. Scale Bar=400 μM.
Post MTX treatment, the cells were labeled using primary antibodies (anti-SSEA4-anti mouse IgG3 and anti-TRA 1-60 host-rabbit) followed by secondary antibodies conjugated to (Alexa Fluor 488 goat anti-mouse IgG3 and Alexa Fluor 594 donkey anti-rabbit). The cells were counterstained with DAPI. […] The cells were grown in DMEM medium with low methionine (15 mg/L). Scale Bar=400 μM (FIG. 26A); Scale Bar=200 μM (FIG. 26B).
Immunofluorescence analysis: The relative optimal image-based analysis of 2 key human pluripotent stem cells markers [octamer-binding transcription factor 4 (OCT4) and stage-specific embryonic antigen 4 (SSEA4)] was performed using the Pluripotent Stem Cell Immunocytochemistry Kit (Thermo Fisher Scientific) according to the manufacturer's instructions. Briefly, the cells were grown in 10% FBS DMEM supplemented with NEAAs and Glutamax in wells coated with 0.1% gelatin. For immunofluorescence localization, the cells were stained for SSEA4 and Oct4 and counterstained with DAPI using the kit (Thermo Fisher Scientific). The endogenous proteins were labeled using primary antibodies (anti-SSEA4 anti-mouse IgG3 and anti-OCT4 host-rabbit) followed by secondary antibodies conjugated to Alexa Fluor 488 goat anti-mouse IgG3 and Alexa Fluor 594 donkey anti-rabbit.
The quiescent nature of the MTX and PTX cells and the association of demethylation with the generation of induced pluripotent stem cells led to examining markers for stem cells formation. The 293T and HF57 cells were grown on 5% dialyzed FBS DMEM medium. DMEM without methionine, DMEM with 15 mg/L (half dose) and DMEM with 30 mg/L (regular DMEM) were used to grow the cells. […] Subsequently, the cells were assessed for markers linked to stem cells. […]

| Structure (SMILES) | cell proliferation [1] | concentration as low as which achieved similar results ([1]; when a lower concentration of FBS was used) [nM] | cell proliferation [2] | cell proliferation [3] | global DNA methylation (5mC content) [4] | global DNA methylation (5mC content) [5] | SSEA-4 surface antigen immunofluorescence ([6]; 1 μM for 9-days, regular DMEM, no signals in control cells) | SSEA-4 and TRA 1-60 surface markers immunofluorescence [6] |
| --- | --- | --- | --- | --- | --- | --- | --- | --- |
| CN(Cc1cnc2nc(N)nc(N)c2n1)c1ccc(C(=O)N[C@@H](CCC(=O)O)C(=O)O)cc1 [MTX, methotrexate] | reduced cell proliferation | 75 | reduced cell proliferation | reduced cell proliferation | significantly lower levels of DNA methylation; also recorded: significant reduction in global DNA methylation | significant reduction in global DNA methylation | expression of SSEA-4 surface antigens | high levels of SSEA-4 and TRA 1-60; also recorded: expression of SSEA-4 and TRA 1-60 surface antigens |
| Nc1nc2[nH]cc(CCc3ccc(C(=O)N[C@@H](CCC(=O)O)C(=O)O)cc3)c2c(=O)[nH]1 [PTX, pemetrexed] | reduced cell proliferation |  | reduced cell proliferation | reduced cell proliferation | significantly lower levels of DNA methylation; also recorded: significant reduction in global DNA methylation | significant reduction in global DNA methylation |  | expression of SSEA-4 and TRA 1-60 surface markers |
